# From patent US20250034575A1, “OLIGONUCLEOTIDES FOR DGAT2, FASN, OPN, AND NOX4 MODULATIONS” (UNIVERSITY OF MASSACHUSETTS, priority 2023, published 2025)
# Legend:
# LX2 human stellate cells = test: Tgf-β driven activation of LX2 human stellate cells with Fasn inhibitor; type: cell-based
# Method: In vitro screening of LX2 human stellate cells was executed by plating 500,000 cells/well in 6-well plates overnight at 37° C., 5% CO2 in 0% FBS DMEM medium (11885-076, Gibco). Following a 4-hour pre-treatment with 1 nM or 100 nM Fasn inhibitor (TVB-3664-S8563, Selleck Chemicals), stellate cell activation was initiated by adding recombinant human Tgf-β (240-B-002, R & D Systems) for a 5 ng/mL final concentration. After 48 hours, protein and mRNA were isolated from the cells and further analysis was performed.
# Frozen liver tissue punches (25-50 mg) were homogenized in TRIzol (15596018, Thermo Scientific) using the Qiagen TissueLyser II. Chloroform was added to the homogenate and centrifuged for 15 minutes at maximum speed. The clear upper layer was added to an equal volume of 100% isopropanol and incubated for 1 h at 4° C. After 10 min of centrifugation at maximum speed, the supernatant was discarded, and 70 to 75% ethanol was added to wash the pellet. After 5 min of centrifugation at maximum speed, the supernatant was discarded, and the pellet was briefly dried in the hood prior to resuspension in double-distilled water. RNA concentration was measured via the Thermo Scientific NanoDrop2000 spectrophotometer. Complementary DNA was then synthesized from 1 μg of total RNA using iScript cDNA Synthesis Kit (1708890, Bio-Rad) and Bio-Rad T100 thermocycler. Quantitative RT-PCR was performed using iQ SybrGreen Supermix (4368708, Applied Biosystems) on the Bio-Rad CFX96 C1000 Touch Thermal Cycler and analyzed.
# (§1) In the analysis of protein expression, cell lysates were homogenized in a RIPA buffer (25 mM Tris, pH 7.4 0.15 M NaCl 0.1% Tween 20) with 1:100 protease inhibitor (78442, Thermo Scientific). The lysates were denatured by boiling, separated on a 4 to 15% SDS/polyacrylamide gel electrophoresis gel (567-1094, Bio-Rad), and transferred to a nitrocellulose membrane (1704159, Bio-Rad). The membrane was blocked using TBS-T with 5% BSA for 1 hour at room temperature and incubated using p-SMAD3 (ab52903, Abcam), type I collagen (1310-30, Southern Biotech), and GAPDH (5174, Cell Signaling). The blot was further washed in TBS-T and incubated at room temperature with its corresponding secondary antibody for 30 minutes. Following another wash, the blot was incubated with ECL (32106, Thermo Scientific) and visualized with the ChemiDox XRS+ image-forming system.
# To investigate the role of palmitate production in stellate cell activation, LX2 human stellate cells were treated with a validated, potent and specific small molecule inhibitor of Fasn, TVB-3664, at a final concentration of either 1 nM or 100 nM for 4 hours. Cells were then subjected to 5 ng/mL Tgf-β, a strong stimulator of stellate cell activation. Forty-eight hours later, the morphology of activated stellate cells, with increased cell size and elongation of spindle-like structures, was easily observed in Tgf-β treated cells.
# FASN = test: Cholesterol conjugated Fasn-2314 in Tgfb activated Lx2 cells, Western blotting; type: cell-based, human; details: 1.5 uM, Tgfb 5 ng/ml
# Method: as §1
# Moreover, the protein level of Smad3 was also measured for untreated control, cholesterol conjugated non-targeting control, and cholesterol conjugated Fasn-2314. 1×10^6 of human Lx2 cells were plated in 10 cm2 plates and treated with 1.5 uM cholesterol conjugated Fasn-2314. 24 hrs post treatment Lx2 cells were activated with Tgfb (5 ng/ml) to induce fibrotic phenotype. 48 hrs post activation cells were harvested and processed for Western blotting analysis.
# [1] = LX2 cells, 1 nM or 100 nM, 4 hours, then 5 ng/mL Tgf-β, 48 hours
Compound,Tgf-β-induced type 1 collagen protein expression (LX2 human stellate cells; [1]),mRNA levels of Acta2 (LX2 human stellate cells; [1]),mRNA levels of Col1a1 (LX2 human stellate cells; [1]),morphological change of activated stellate cells (LX2 human stellate cells; [1]),phosphorylated SMAD3 protein (LX2 human stellate cells; [1]),Cpt1a gene expression (LX2 human stellate cells; Tgf-β activated LX2 cells),Hsp47 gene expression (LX2 human stellate cells; Tgf-β activated LX2 cells),Nrf2 gene expression (LX2 human stellate cells; Tgf-β activated LX2 cells),Pgc-1α gene expression (LX2 human stellate cells; Tgf-β activated LX2 cells),Pparα gene expression (LX2 human stellate cells; Tgf-β activated LX2 cells),Sirt1 gene expression (LX2 human stellate cells; Tgf-β activated LX2 cells),anti-fibrotic effect (LX2 human stellate cells; Tgf-β activated LX2 cells),expression of Nox4 (LX2 human stellate cells; Tgf-β activated LX2 cells),LC3II protein (autophagy) (FASN),activation and collagen production in Tgfb treated stellate cells (FASN),p62 protein (autophagy) (FASN),phosphorylation of SMAD3 (FASN)
COCc1[nH]c(C(F)(F)F)nc1-c1cc(C(=O)N2CC(c3ccc(C#N)cc3)C2)c(C)cc1C [TVB-3664],blocked,reduction,reduction,severely inhibited,reduced,reduction,reduction,remarkable upregulation,remarkable upregulation,remarkable upregulation,remarkable upregulation,strong anti-fibrotic effect,reduction in expression,–,–,–,–
"FASN 2314: siRNA targeting human FASN; antisense SEQ ID NO: 56, TegChol sense SEQ ID NO: 57 (sense CCGAGUACAAUGUCAA; antisense UUGACAUUGUACUCGGCGGUU; sugars by position and backbone not given here; 2'-F/2'-OMe modifications not assigned, TegChol cholesterol on sense, further chemistry not fully specified)",–,–,–,–,–,–,–,–,–,–,–,–,–,accumulation,blunted,accumulation,blunted
